According to US6503881B2 (priority 1996, dated 2003):
Where two headings read alike, the source gives them in different places.

System: bacteria

Row | Substance | MIC (A. calcoaceticus AC002) [µg/mL] | MIC (E. cloacae ECL007) [µg/mL] | MIC (E. coli ECO005) [µg/mL] | MIC (K. pneumoniae KP001) [µg/mL] | MIC (P. aeruginosa PA004) [µg/mL] | MIC (S. aureus SA008) [µg/mL] | MIC (S. maltophilia SMA002) [µg/mL] | MIC (S. marcescens SMS003) [µg/mL] | MIC (E. faecalis EFS002) [µg/mL] | MIC (S. marcescens SMS004) [µg/mL] | MIC (A. calcoaceticus AC001) [µg/mL] | MIC (E. faecalis EFS004) [µg/mL] | further results
1 | I L K K W P W W P W R K [MBI 11B4ACN] | 4 | >128 | 32 | 32 | >128 | 1 | 64 | >128 | – | – | – | – | MIC (E. faecalis EFS008): 64 µg/mL; MIC (S. epidermidis SE010): 8 µg/mL
2 | ILKKWPWWPWRRIMILKKAGS [MBI 11D6CN] | 4 | >32 | – | – | – | – | – | – | 4 | >64 | – | – | MIC (E. coli ECO002): 32 µg/mL; MIC (E. faecium EFM003): 1 µg/mL; MIC (K. pneumoniae KP002): >64 µg/mL; MIC (P. aeruginosa PA024): >64 µg/mL; MIC (S. aureus SA009): 8 µg/mL; MIC (S. epidermidis SE010): 4 µg/mL; MIC (S. maltophilia SMA001): >64 µg/mL
3 | I L K K W P W W P W R R I M [MBI 11D13H] | – | >64 | – | – | >64 | – | >64 | – | – | >64 | 64 | 16 | MIC (E. coli ECO002): 32 µg/mL; MIC (K. pneumoniae KP002): >64 µg/mL; MIC (S. aureus SA025): 4 µg/mL
4 | ILKKWPWWPWRRKMILKKAGS [MBI 11D4CN] | – | >64 | – | – | >64 | – | – | – | 16 | >64 | >64 | – | MIC (E. coli ECO003): 64 µg/mL; MIC (E. faecium EFM002): 1 µg/mL; MIC (K. pneumoniae KP002): >64 µg/mL; MIC (S. aureus SA009): 4 µg/mL; MIC (S. maltophilia SMA001): >64 µg/mL
5 | I L K K W P W W P W R R K M [MBI 11D11H] | – | >64 | – | >64 | – | 4 | >64 | – | – | >64 | >64 | – | MIC (E. coli ECO002): 32 µg/mL; MIC (P. aeruginosa PA001): >64 µg/mL
6 | I L K K W P W W P W R R K [MBI 11ACN] | 2 | >128 | 16 | 16 | >128 | – | 64 | >128 | – | – | – | 8 | MIC (E. faecalis EFS008): 64 µg/mL; MIC (S. aureus SA014): 8 µg/mL; MIC (S. epidermidis SE010): 4 µg/mL
7 | I L K K W P W W P W R R K [MBI 11A] | – | >64 | >64 | 64 | – | – | >64 | >64 | – | – | >64 | 32 | MIC (P. aeruginosa PA024): >64 µg/mL; MIC (S. aureus SA002): 4 µg/mL
8 | I L K K W P W W P W R R K [MBI 11CNW1] | 8 | 64 | 32 | 32 | 64 | – | 32 | >128 | – | – | – | – | MIC (E. faecalis EFS001): 8 µg/mL; MIC (S. aureus SA010): 4 µg/mL
9 | I L K K W P W W P W R R K [MBI 11CNX1] | – | >64 | 64 | >64 | – | – | >64 | >64 | – | – | >64 | 16 | MIC (P. aeruginosa PA024): >64 µg/mL; MIC (S. aureus SA006): 2 µg/mL
10 | I L K K W P W W P W R R K [MBI 11M4] | – | – | – | – | – | 8 | – | – | – | – | – | – | MIC (E. faecalis EFS001): 32 µg/mL; MIC (E. faecium EFM001): 32 µg/mL
11 | I L K K W P W W P W R R K [MBI 11M8] | – | – | – | – | – | 32 | – | – | 32 | – | – | – | MIC (E. faecium EFM002): 32 µg/mL
12 | ILKKWPWWPWRRMILKKAGS [MBI 11D5CN] | – | >64 | – | >64 | – | – | – | – | 16 | >64 | >64 | – | MIC (E. coli ECO003): 64 µg/mL; MIC (E. faecium EFM003): 1 µg/mL; MIC (P. aeruginosa PA003): >64 µg/mL; MIC (S. aureus SA005): 8 µg/mL; MIC (S. maltophilia SMA001): 64 µg/mL
